The values that follow are results of earlier work, collected in paper PMC10591878 (ACS infectious diseases, 2023).

Data set [1] relates to P. falciparum Dd2-B2 parasites. To be noted: for MIR: Dd2-B2; for resistant parasites in 3 wells of 3 × 10^7 / resistant parasites in 4 wells of 2.5 × 10^6: Dd2-B2, 3 × EC50.
The subject of data set [2] is Dd2-B2 Pf20S WT and mutant lines. To be noted: β6 N151Y vs Dd2-B2 parental line.

For the compound `O=C(NC1CCCC1)[C@@H]1CCCCOc2cccc(c2)C[C@H](N2CCCC2=O)C(=O)N[C@@H](CCN2CCOCC2)C(=O)N1` [TDI-8304], in data set [1], the MIR was 3×10^7, the “resistant parasites in 3 wells of 3 × 10^7” value is given as 3/3 wells and the “resistant parasites in 4 wells of 2.5 × 10^6” value was 0/4 wells. In addition, in data set [2], the “EC50 fold shift against selection compound” value was 1.7×.
As to `CC(C)C[C@@H](/C=C/S(C)(=O)=O)NC(=O)[C@H](CC(C)C)NC(=O)[C@H](Cc1c[nH]c2ccccc12)NC(=O)CN1CCOCC1` [WLL], in data set [1], the “number of parasites with which resistance was obtained” value is given as 2 × 10^9 parasites, the MIR is given as >1 × 10^9, the “resistant parasites in 3 wells of 3 × 10^7” value is “none” and the “resistant parasites in 4 wells of 2.5 × 10^6” value is on record as 0/4 wells.
